Key:
[1] = tested on: oxonic acid (OA)-induced hyperuricemic model in Sprague-Dawley rats; assay: Example 4: plasma uric acid in normal and OA-dosed rats; assay type: in vivo
Protocol: Materials and Methods. To produce hyperuricemia, rats received OA (Sigma, St Louis Mo., USA) 750 mg/kg body weight daily by gastric gavage. To investigate the treatment effect of febuxostat (also referred to herein as “Fx”), the drug was administered in drinking water at 50 mg/L (approximately 5-6 mg/kg/day) four weeks after OA dosing while the respective controls received 5.84 mg/L of NaCl in drinking water (to maintain a salt concentration equivalent to the Febuxostat-containing water). […] Body weight, food and water intakes were measured daily. Systolic blood pressure, obtained in conscious rats by a tail cuff sphygmomanometer, and plasma uric acid were measured in all animals at baseline and at the end of four and eight weeks. […]
Evaluation. Food and water intake were determined daily. Systolic blood pressure (hereinafter “SBP”) was measured in conscious animals by a tail cuff sphygmomanometer using an automated system (XBP-100, Kent Scientific Co, USA). […] Plasma UA, insulin and triglycerides were quantified using commercial kits (Diagnostic Chemicals Ltd, USA; Crystalchem, USA and Spinreact, Spain, respectively).
Statistical Analysis. Values were expressed as mean±standard error of the mean (hereinafter “SEM”). In the study, values from the respective four treatment groups were analyzed by one-way analysis of variance (hereinafter “ANOVA”). […]

[2] = tested on: subjects having a systolic BP≧160 mmHg or diastolic BP≧95 mmHg (elevated blood pressure); assay: Example 2: blood pressure change in subjects with elevated blood pressure, none taking angiotensin-converting enzyme inhibitors (two double-blind studies); assay type: in vivo, human
Protocol: None of these subjects were taking any angiotensin-coverting enzyme inhibitors, but might have been taking some other type of antihypertensive drug at the baseline (start) of the study. These 158 subjects were part of two (2) DB studies. One study was of 28 weeks in duration during which subjects received 80 mg, 120 mg or 240 mg QD of febuxostat or placebo or allopurinol 300 or 100 mg QD, depending on the subject's renal function. The second study was 52 weeks in duration during which subjects received 80 mg or 120 mg QD of febuxostat or allopurinol 300 mg QD. […] A total of 52 weeks of treatment was completed by 15 subjects in the febuxostat 80 mg QD group, 9 in the febuxostat 120 mg QD group and 17 in the allopurinol 300/100 mg QD group. Because of the shorter duration of one of the two DB studies, no subject in the placebo and febuxostat 240 mg QD groups was treated for 52 weeks.

[3] = 80 mg QD, after 4 weeks of treatment
[4] = 80 mg QD, after 28 weeks of treatment
[5] = 80 mg QD, after 52 weeks of treatment
[6] = 120 mg QD, after 4 weeks of treatment
[7] = 120 mg QD, after 28 weeks of treatment
[8] = 120 mg QD, after 52 weeks of treatment
[9] = 240 mg QD, after 4 weeks of treatment
[10] = 240 mg QD, after 28 weeks of treatment

In the case of Cc1nc(-c2ccc(OCC(C)C)c(C#N)c2)sc1C(=O)O [febuxostat, 2-[3-cyano-4-(2-methylpropoxy)phenyl]-4-methylthiazole-5-carboxylic acid], the “plasma uric acid levels (effect in words)” value ([1]; OA-dosed rats, febuxostat added beginning at 4 weeks, FIG. 1) is reported as “reduced the uric acid levels back into the normal range”, the “uric acid levels relative to control” value ([1]; normal rats receiving febuxostat, difference not statistically significant) is reported as “approximately 53 % of control values” and the “mean change from baseline for diastolic BP” value [2, 3] is reported as −4.7 mmHg. The “mean change from baseline for mean arterial BP” value [2, 3] was −5.5 mmHg, the “mean change from baseline for systolic BP” value [2, 3] was −7.2 mmHg and the “mean change from baseline for diastolic BP” value [2, 4] was −8.7 mmHg. For the same compound, the “mean change from baseline for mean arterial BP” value [2, 4] was −9.2 mmHg, the “mean change from baseline for systolic BP” value [2, 4] was −10.4 mmHg and the “mean change from baseline for diastolic BP” value [2, 5] was −8.1 mmHg. For the same compound, the “mean change from baseline for mean arterial BP” value [2, 5] was −8.5 mmHg, the “mean change from baseline for systolic BP” value [2, 5] was −9.5 mmHg and the “mean change from baseline for diastolic BP” value [2, 6] was −7.2 mmHg. The “mean change from baseline for mean arterial BP” value [2, 6] was −7.6 mmHg, the “mean change from baseline for systolic BP” value [2, 6] was −8.3 mmHg and the “mean change from baseline for diastolic BP” value [2, 7] was −7.5 mmHg. For the same compound, the “mean change from baseline for mean arterial BP” value [2, 7] was −8.7 mmHg, the “mean change from baseline for systolic BP” value [2, 7] was −11.0 mmHg and the “mean change from baseline for diastolic BP” value [2, 8] was −7.2 mmHg. The “mean change from baseline for mean arterial BP” value [2, 8] was −11.3 mmHg, the “mean change from baseline for systolic BP” value [2, 8] was −19.4 mmHg and the “mean change from baseline for diastolic BP” value [2, 9] was −9.3 mmHg. For the same compound, the “mean change from baseline for mean arterial BP” value [2, 9] was −12.5 mmHg, the “mean change from baseline for systolic BP” value [2, 9] was −18.9 mmHg and the “mean change from baseline for diastolic BP” value [2, 10] was −10.0 mmHg. The “mean change from baseline for mean arterial BP” value [2, 10] was −12.9 mmHg and the “mean change from baseline for systolic BP” value [2, 10] was −18.8 mmHg.

Source: patent publication US20140329868A1, “METHODS FOR TREATING HYPERTENSION” (TAKEDA PHARMACEUTICALS U.S.A., INC., priority 2005, published 2014)
